SMILES strings stand for the structures.

Test [1] has as its system angiotensin II constriction in an isolated rabbit thoracic aorta. Put plainly: Antagonism to angiotensin II constriction in an isolated rabbit thoracic aorta (test 3). The note with it: test compound 10^-6 M for 20 minutes. The protocol:
3) Antagonism to angiotensin II constriction in an isolated rabbit thoracic aorta
A rectangular strip-like sample of thoracic aorta isolated from an anaesthetized rabbit was prepared, and the sample was suspended at 2.0 g of loaded tension in a Magnus tube filled with Krebs-Henseleitoid nutrition solution which was well aerated with 95% O2-5% CO2, and the constriction tension was measured using an isometric transducer. After the tension of the sample at rest became stable, accumulative administration of angiotensin II was carried out to obtain a concentration-action curve. Thereafter, the sample was washed with the same nutrition solution, then treated with test compound (10^-6 M) for 20 minutes to obtain again a concentration-action curve of angiotensin II. The results were obtained as followed: generated maximum tension at the first accumulative administration of angiotensin II was regarded as 100 %, and the 50 % effective concentration (ED50) was obtained in the presence or absence of the test compound, and pA2 value was calculated according to the following equations: • pA2=-logKB KB=C/{(A'/A)-1} • C; concentration of the test compound (M) • A'; ED50 in the presence of test compound (M) • A; ED50 in the absence of the test compound (M)

Test [2] addresses Angiotensin II receptor. Description: In vitro angiotensin II mesenteric artery receptor binding assay (test 1). As to conditions: rat mesenteric artery membrane fraction, 0.2 nM 125I-Ang II, 22°C, 90 minutes. An outline of the steps:
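Rat mesenteric artery membranes ([…] protein equivalent) incubated with 0.2 nM ^125I-Ang II and compound, 90 min at 22°C, pH 7.2 Tris buffer. Bound radioactivity counted after filtration; nonspecific binding defined with 1 µM unlabeled angiotensin II.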

In test [3] the test system is blood pressure increase by angiotensin II. Put plainly: Antagonism to blood pressure increase by angiotensin II in a spine destroyed (pithed) rat (test 4). The class given is in vivo, Wistar rat. As to conditions: intravenous administration, 3µg/kg angiotensin II, read-out: Inhibition of blood pressure increase by angiotensin II in pithed rat ED50(mg/kg) (test 4). The text has this: 4) Antagonism to blood pressure increasing by angiotensin II in a spine destroyed rat
Wistar rat anaesthetized with pentobarbital was fixed at dorsal position, and a cannula for measuring blood pressure was inserted into sinister arteria carotis communis, and a cannula for administration of the test compound into dexter external jugular vein and a cannula for administration of angiotensin II into sinister external jugular vein, ambilateral nervus vagus was cut, and artificial respiration was carried out. A thin bar made of metal was stabbed into spinal column through sinister orbita to destroy spine. Blood pressure was recorded on polygraph via pressure transducer from an arterial cannula. After blood pressure was stable for more than 30 min., 3µg/kg of angiotensin II was administered intravenously four times every 15 min, and every 5 min. before the administration of angiotensin II from the second administration onward, a solvent, a lower dose of the test compound, and a higher dose of the test compound were administered intravenously in this order to observe the blood pressure increasing response by angiotensin II. ED50 values were calculated from the inhibiting rate when the first blood pressure increase by angiotensin II was regarded as 100 %.

Test [4] has the same test system. Put plainly: Blood pressure increase by angiotensin II-inhibiting test, intraduodenal administration, anesthetized normotensive rat. Format: in vivo.
The subject of test [5] is hypertensive rat model (SHR). Description: Oral administration test in hypertensive rat model (SHR). Format: in vivo. The note with it: 10 mg/kg oral administration.

Broadly, the IC50 is the concentration needed to halve the response being measured. Turning to `CCCc1nc2c(=O)n3n(c(=O)c2n1Cc1ccc(-c2ccccc2-c2nn[nH]n2)cc1)C1CCC3CC1` [Compound No. 108, 5,8-ethano-2-n-propyl-5,6,7,8-tetrahydro-1-[(2'-(1H-tetrazol-5-yl)biphenyl-4-yl)methyl]-1H-1,3,4a,8a-tetraza-cyclopentanaphthalene-4,9-dione], the “Inhibition of rabbit aorta constriction pA2 (test 3)” value (“Inhibition” for short) in test [1] was 9.53. This compound registered an IC50 in test [2] of 1.9 nM. Moreover, in test [3], the ED50 worked out at 0.069 mg/kg.

In the case of `CCCCc1nc2c(=O)n3n(c(=O)c2n1Cc1ccc(-c2ccccc2-c2nn[nH]n2)cc1)C1CCC3CC1` [Compound No. 109, 2-n-butyl-5,8-ethano-5,6,7,8-tetrahydro-1-[(2'-(1H-tetrazol-5-yl)biphenyl-4-yl)methyl]-1H-1,3,4a,8a-tetraza-cyclopentanaphthalene-4,9-dione], in test [1], the “Inhibition” value was found to be 9.49. In test [2], the IC50 came to 2.8 nM. The ED50 in test [3] was found to be 0.21 mg/kg.

`CCCc1nc2c(=O)n3n(c(=O)c2n1Cc1ccc(-c2ccccc2-c2nn[nH]n2)cc1)C(C)CCC3C(=O)O` (stereo not drawn) [Compound No. 111, 4,9-dioxo-8-methyl-2-n-propyl-5,6,7,8-tetrahydro-1-[(2'-(1H-tetrazol-5-yl)biphenyl-4-yl)methyl]-1H-1,3,4a,8a-tetraza-cyclopentanaphthalene-5-carboxylic acid]: the “Inhibition” value in test [1] is recorded as 9.01. The same compound came in with an IC50 in test [2] of 21 nM. The ED50 in test [3] is 0.51 mg/kg.

`CCCc1nc2c(=O)n3n(c(=O)c2n1Cc1ccc(-c2ccccc2-c2nn[nH]n2)cc1)C(C)CCC3C(=O)OCC` (stereo not drawn) [Compound No. 139, ethyl 4,9-dioxo-8-methyl-2-n-propyl-5,6,7,8-tetrahydro-1-[(2'-(1H-tetrazol-5-yl)biphenyl-4-yl)methyl]-1H-1,3,4a,8a-tetraza-cyclopentanaphthalene-5-carboxylate]: the “Inhibition” value in test [1] is given as 10.63. The compound also yielded an IC50 in test [2] of 1.9 nM. Besides, the ED50 in test [3] came out at 0.038 mg/kg.

With `CCCc1nc2c(=O)n3n(c(=O)c2n1Cc1ccc(-c2ccccc2-c2nnn[nH]2)cc1)C(C)CCC3C(=O)NC(C)(C)C` (stereo not drawn) [Compound No. 207, 4,9-dioxo-8-methyl-2-n-propyl-5,6,7,8-tetrahydro-1-[{2'-(1H-tetrazol-5-yl)biphenyl-4-yl}methyl]-1H-1,3,4a,8a-tetraza-cyclopentanaphthalene-5-carboxy-N-t-butylamide], in test [1], the “Inhibition” value was 10.1. Moreover, in test [2], the IC50 amounted to 3.9 nM. Also, the ED50 in test [3] stood at 0.033 mg/kg.

In the case of `CCCCc1nc2c(=O)n3n(c(=O)c2n1Cc1ccc(-c2ccccc2-c2nnn[nH]2)cc1)C1CCC3(CO)CC1` [Compound No. 220, 2-n-butyl-5,8-ethano-5-hydroxymethyl-5,6,7,8-tetrahydro-1-[{2'-(1H-tetrazol-5-yl)biphenyl-4-yl}methyl]-1H-1,3,4a,8a-tetraza-cyclopentanaphthalene-4,9-dione], the “Inhibition” value in test [1] is given as 9.93. This compound also displayed an IC50 in test [2] of 2.6 nM. In addition, in test [3], the ED50 was 0.27 mg/kg.

As to `CCCc1nc2c(=O)n3n(c(=O)c2n1Cc1ccc(-c2ccccc2-c2nnn[nH]2)cc1)C1CCC3(COCC(=O)OC(C)(C)C)CC1` [Compound No. 223, 5-t-butoxycarboxylmethoxymethyl-5,8-ethano-2-n-propyl-5,6,7,8-tetrahydro-1-[{2'-(1H-tetrazol-5-yl)biphenyl-4-yl}methyl]-1H-1,3,4a,8a-tetraza-cyclopentanaphthalene-4,9-dione], the “Inhibition” value in test [1] was 9.68. In addition, the IC50 in test [2] turned out to be 9.8 nM. Also, in test [3], the ED50 stood at 0.1 mg/kg.

In the case of `CCCc1nc2c(=O)n3n(c(=O)c2n1Cc1ccc(-c2ccccc2-c2nn[nH]n2)cc1)C1CCC3(C(=O)NC(C)(C)C)CC1` [Compound No. 235, 4,9-dioxo-5,8-ethano-2-n-propyl-5,6,7,8-tetrahydro-1-[{2'-(1H-tetrazol-5-yI)biphenyl-4-yl}methyl]-1H-1,3,4a,8a-tetraza-cyclopentanaphthalene-5-carboxy-N-t-butylamide], the “Inhibition” value in test [1] came to 9.62. In test [2], this compound registered an IC50 of 21 nM. Moreover, the ED50 in test [3] turned out to be 0.07 mg/kg.

For `CCCc1nc2c(n1Cc1ccc(-c3ccccc3-c3nn[nH]n3)cc1)C(=O)N1C3CCC(CC3)N1C2` [Compound No. 438, 5,8-ethano-2-n-propyl-5,6,7,8-tetrahydro-1-[{2'-(1H-tetrazol-5-yl)biphenyl-4-yl}methyl],1H,4H-1,3,4a,8a-tetraza-cyclopentanaphthalene-9-one], the “Inhibition” value in test [1] worked out at 8.57. The IC50 in test [2] was found to be 7.5 nM. Besides, the ED50 in test [3] amounted to 0.37 mg/kg.

Take `CCCc1nc2c(n1Cc1ccc(-c3ccccc3-c3nn[nH]n3)cc1)C(=O)N1N(C2)C2(C)CCC1(C)CC2` [Compound No. 450, 5,8-dimethyl-5,8-ethano-2-n-propyl-5,6,7,8-tetrahydro-1-[{2'-(1H-tetrazol-5-yl)biphenyl-4-yl}methyl)-1H,4H-1,3,4a,8a-tetraza-cyclopentanaphthalene-9-one]: the “Inhibition” value in test [1] was 9.92. In test [2], this compound had an IC50 of 1.7 nM. Moreover, the ED50 in test [4] worked out at 0.95 mg/kg; in test [3] it was 0.32 mg/kg. Also, the action lasting time result in test [4] (3 mg/kg) is “not less than 5 hours”.

In the case of `CCCCc1nc2c(n1Cc1ccc(-c3ccccc3-c3nn[nH]n3)cc1)C(=O)N1N(C2)C2(C)CCC1(C)CC2` [Compound No. 451, 2-n-butyl-5,8-dimethyl-5,8-ethano-5,6,7,8-tetrahydro-1-[{2'-(1H-tetrazol-5-yl)biphenyl-4-yl}methyl]-1H,4H-1,3,4a,8a-tetraza-cyclopentanaphthalene-9-one], in test [1], the “Inhibition” value was 10.04. The IC50 in test [2] is 1.9 nM. Further, the ED50 came to 0.84 mg/kg in test [4] and 0.63 mg/kg in test [3]. In test [4] (1 mg/kg), the action lasting time entry is “not less than 5 hours”. Also, in test [5], the vasodepressor activity entry is on record as “significant vasodepressor activity over 24 hours”.

`CCCc1nc2c(n1Cc1ccc(-c3ccccc3-c3nnn[nH]3)cc1)C(=O)N1N(C2)C2(CC)CCC1(CC)CC2` [Compound No. 454, 5,8-diethyl-5,8-ethano-2-n-propyl-5,6,7,8-tetrahydro-1-[{2'-(1H-tetrazol-5-yl)biphenyl-4-yl}methyl]-1H,4H-1,3,4a,8a-tetraza-cyclopentanaphthalene-9-one]: in test [1], the “Inhibition” value was found to be 10.34. Besides, the IC50 in test [2] was 3.5 nM. Besides, the results for the ED50 in test [4] and in test [3] were 1.28 mg/kg and 0.34 mg/kg, respectively. Also, the action lasting time entry in test [4] (3 mg/kg) was “not less than 5 hours”.

Turning to `CCCCc1nc2c(n1Cc1ccc(-c3ccccc3-c3nnn[nH]3)cc1)C(=O)N1N(C2)C2(CC)CCC1(CC)CC2` [Compound No. 455, 2-n-butyl-5,8-diethyl-5,8-ethano-5,6,7,8-tetrahydro-1-[{2'-(1H-tetrazol-5-yl)biphenyl-4-yl}methyl]-1H,4H-1,3,4a,8a-tetraza-cyclopentanaphthalene-9-one], in test [1], the “Inhibition” value is recorded as 8.82. This compound gave an IC50 in test [2] of 3.3 nM. Moreover, the ED50 was 0.81 mg/kg in test [4] and 0.64 mg/kg in test [3]. In addition, the action lasting time result in test [4] (1 mg/kg) is on record as “not less than 5 hours”.

Values taken from patent EP0609289B1, “IMIDAZOLE DERIVATIVES AND PHARMACEUTICAL COMPOSITIONS CONTAINING THE SAME” (THE UPJOHN COMPANY, priority 1991, dated 1993).
